Laboratory results as given in publication PMC6271218, “Pharmacokinetics, Tissue Distribution and Excretion of Verticinone from F. hupehensis in Rats” (Molecules, 2014).
Like-named read-outs stand apart in the source and are kept apart here.

Columns and labels:
[1] = Multiple-dose (successive i.g.) plasma pharmacokinetics; assay type: in vivo, SD rats; settings: for Cmax / AUC(0-inf) / AUC(0-t) / Tmax / MRT last / Vd/F / half-life: SD, rat, plasma, po; for MRT last: read-out: MRT0–t; for Vd/F: read-out: Vz/F; for half-life: read-out: t1/2z (converted)
Description: (§1) Pharmacokinetic studies of verticinone after intravenous (i.v.) and intragastrical (i.g.) administration to rats were designed to determine pharmacokinetic parameters and absolute bioavailability. For i.g administration, verticinone was suspended in 0.5% carboxymethyl cellulose sodium (CMC-Na) to final concentrations of 0.2, 0.4 and 0.8 mg/mL. Verticinone was dissolved in 20% ethanol/80% water to final concentration of 0.08 mg/mL for i.v. administration. For the i.v. group, five male and five female rats received a single dose of 0.4 mg/kg. Blood samples (0.25 mL) were obtained at 0, 4, 15, 30, 45, 60, 120, 240, 360, 480, 600 and 720 min after injection. For the single- i.g. group, fifteen male and fifteen female rats were divided into three groups, and each group received a single oral dose of 1, 2 and 4 mg/kg of verticinone, respectively. In addition, another five male and five female rats received multiple oral doses of 4 mg/kg/day, given as 2 mg/kg doses twice a day (one dose in the morning and the second dose 12 h later) for 7 days, then a single oral dose of 2 mg/kg on the eighth day. Blood samples (0.25 mL) were obtained at 0, 5, 15, 30, 45, 60, 90, 120, 240, 360, 480 and 720 min for male rats and at 0, 5, 10, 20, 30, 45, 60, 120, 240, 360, 480 and 720 min for female rats after oral administration (the eighth day for multiple-dose group). Blood samples were then centrifuged at 4000 rpm for 10 min, and the plasma was collected. All plasma samples were frozen and stored at −20 °C until analysis. Verticinone was isolated from plasma by liquid-liquid extraction according to our previously reported procedure.
(§2) The quantification of verticinone was performed by a LC-MS method based on the previously reported method with slight modifications. The liquid chromatography system consisted of a model 2010 chromatograph (Shimadzu, Kyoto, Japan) equipped with a Shim-Pack VP-ODS C18 column (150 mm × 2.0 mm, 5 μm). A Shimadzu 2010 mass spectrometer (Q-array-Octapole-Quadrupole mass analyzer) equipped with an electrospray ionization interface was used for MS detection. The mobile phase consisted of (A) distilled water and (B) methanol, and the flow rate was 0.2 mL/min. Chromatography separation was achieved using a gradient elution program, as follows: 0.03→6.0 min, B% 15→85; 6.0→7.0 min, B% 85→85; 7.0→8.0 min, B% 85→15; 8.0–12.0 min, B% 15→15. The column and autosampler tray temperature were kept constant at 35 °C and 20 °C, respectively. For the determination of verticinone, the positive mode was selected, along with the conditions as follows.
(§3) CDL voltage […], probe voltage 4.5 kV, CDL temperature 250 °C, block temperature 200 °C, gas flow 1.5 L/min. Hupehenine was used as the internal standard (IS). Both verticinone and IS were detected using selected ion monitoring (SIM) at m/z 430.25 for verticinone and m/z 416.30 for hupehenine (IS), with a dwell time of 200 ms. Blank plasma, tissue homogenate, urine, feces homogenate and bile were used to prepare the corresponding calibration curves to avoid different matrix effects.
(§4) The pharmacokinetic parameters were calculated by the DAS 2.0 software (Chinese Pharmacological Association, Beijing, China) using a standard non-compartmental method. The Cmax and Tmax were determined from the observed data. The elimination rate constant (ke) was calculated by log-linear regression of verticinone concentrations during the terminal elimination phase and the half-life (t1/2) was calculated as 0.693/ke. The AUC0–t was calculated by the linear trapezoidal method. The AUC0–∞ was calculated as the sum of AUC0–t and the extrapolated part determined by Clast/ke. The total clearance (CL) was calculated as dose/AUC0–∞. The absolute bioavailability (F) was calculated by the following equation: F = [(AUCi.g./AUCi.v.) × (Dosei.v./Dosei.g.)] × 100%. The results were expressed as mean ± SD. Statistical analyses were performed using an unpaired Student’s t-test.

[2] = Plasma protein binding in vitro by ultrafiltration, rat plasma; assay type: in vitro ADME, rats
Description: The ability of verticinone to bind to plasma protein was determined by the ultrafiltration method. A Centrifree Micropartition device (Millipore, Beverly, MA, USA) was used to separate unbound and bound verticinone. Verticinone of different concentrations were added into blank rat and human plasma to give final concentrations at 5, 30 and 100 ng/mL. The spiked plasma was incubated for 30 min at 37 °C and an aliquot (100 μL) was analyzed by previously described methods to determine the total concentration of verticinone. The ultrafiltrate was obtained by centrifuging at 14,000 rpm for 10 min. The concentration of unbound verticinone in filtrate was similarly determined by the previously described methods. The percentage of free fraction (p) of verticinone was calculated as follow: p = (concentration of verticinone in ultrafiltrate/concentration of verticinone in original spiked plasma sample) × 100%.

[3] = Tissue distribution study after oral administration; assay type: in vivo, rats; settings: for rank order of AUC values for individual tissues: i.g. 2 mg/kg
Description: A single 2 mg/kg oral dose of verticinone was administrated to thirty rats (15 male and 15 female). Rats were sacrificed and tissues (heart, liver, spleen, lung, kidney, brain, stomach, intestine, skin, muscle, fat and gonads) were promptly removed at 0.25, 0.58 and 6 h (n = 10, with 5 male and 5 female) after dosing and washed with saline. Each tissue sample (0.2 g) was homogenized in 5 volumes (v/w) of distilled water. Tissue homogenates were stored at −20 °C until analysis. Verticinone was extracted from tissue homogenate based on the method described for plasma with slight modifications. The evaporated residue was reconstituted in 200 μL methanol, vortexed, followed by centrifugation at 15,000 rpm twice. An aliquot of 10 μL was injected into the LC-MS system for analysis.
as §2
as §3, with “Blank plasma, tissue homogenate, urine, feces homogenate and bile were used to prepare the corresponding calibration curves to avoid different matrix effects.” left out

[4] = Plasma pharmacokinetics after i.v. administration; assay type: in vivo, SD rats; settings: for AUC(0-inf) / AUC(0-t) / MRT last: SD, rat, plasma, iv; for AUC(0-inf) / AUC(0-t) / MRT last / Vz/F: i.v. 0.4 mg/kg; for MRT last: read-out: MRT0–t
Description: as §1, §2, §3, §4

[5] = successive i.g. 2 mg/kg, female rats
[6] = successive i.g. 2 mg/kg, male rats

C[C@H]1CC[C@@H]2N(C1)C[C@H]1[C@@H]3C[C@H]4[C@@H](CC(=O)[C@H]5C[C@@H](O)CC[C@@]54C)[C@@H]3CC[C@@H]1[C@]2(C)O [verticinone, Verticinone] gave a Cmax ([1]; successive i.g. 2 mg/kg (twice a day for 7 days, then single dose on eighth day), female rats) of 19.9 ± 14 ng/mL, an AUC(0-inf) [1, 5] of 43.4 ± 12 ng·h/mL and an AUC(0-t) [1, 5] of 36.1 ± 15.2 ng·h/mL. It also gave a Tmax [1, 5] of 0.38 ± 0.22 h, an MRT last [1, 5] of 2.24 ± 0.28 h and a Vd/F [1, 5] of 485 ± 499 L/kg. It also gave a half-life [1, 5] of 5.94 ± 4.84 h, an AUC(0-inf) [1, 6] of 455 ± 125 ng·h/mL and an AUC(0-t) [1, 6] of 439 ± 126 ng·h/mL. It also gave a Cmax [1, 6] of 119 ± 26.8 ng/mL, a Tmax [1, 6] of 0.8 ± 0.21 h and an MRT last [1, 6] of 2.98 ± 0.3 h. The Vd/F [1, 6] was 13.8 ± 4.07 L/kg, the half-life [1, 6] was 2.08 ± 0.51 h and the “AUC, fold higher after successive i.g. than single i.g.” value ([1]; female rats, 2 mg/kg) was “approximately 2 fold”. For the same compound, the “CL, fold lower after successive i.g. than single i.g.” value ([1]; female rats, 2 mg/kg) was 2 fold, the “Cmax, fold higher after successive i.g. than single i.g.” value ([1]; female rats, 2 mg/kg) was “approximately 2 fold” and the fraction unbound at 30 min, 5 ng/mL ([2]; rat plasma, 5 ng/mL, ultrafiltration, n = 4, read-out: Protein binding rates (%) (converted)) was 0.087. The fraction unbound at 30 min, 30 ng/mL ([2]; rat plasma, 30 ng/mL, ultrafiltration, n = 4, read-out: Protein binding rates (%)) was 0.09, the fraction unbound at 30 min, 100 ng/mL ([2]; rat plasma, 100 ng/mL, ultrafiltration, n = 4, read-out: Protein binding rates (%) (converted)) was 0.102 and the fraction unbound at 30 min ([2]; rat, plasma, rats, concentration range 5~100 ng/mL) was 0.087 to 0.102. The “rank order of AUC values for individual tissues” value ([3]; female rats) was “intestine > stomach > liver > kidney > spleen > lung > gonad > heart > muscle > skin > fat > brain”, the “rank order of AUC values for individual tissues” value ([3]; male rats) was “intestine > stomach > liver > kidney > spleen > lung > heart > gonad > muscle > skin > fat > brain” and the “concentration found in the brain” value ([3]; oral 2 mg/kg, rats, 15 min, 35 min and 6 h) was “very little was found in the brain”. It also gave an AUC(0-inf) ([4]; female rats) of 98.9 ± 35.8 ng·h/mL, an AUC(0-t) ([4]; female rats) of 65.6 ± 7.03 ng·h/mL and an MRT last ([4]; female rats) of 2.04 ± 0.34 h. The AUC(0-inf) ([4]; male rats) was 168 ± 23 ng·h/mL, the AUC(0-t) ([4]; male rats) was 160 ± 20.2 ng·h/mL and the MRT last ([4]; male rats) was 2.37 ± 0.14 h. For the same compound, the Vz/F ([4]; female rats) was 82.5 ± 70.3 L/kg, the Vz/F ([4]; male rats) was 10.9 ± 1.56 L/kg and the “Exposure, fold higher in male rats than in female rats” value ([4]; i.v. dose 0.4 mg/kg) was 2.4 fold.
